“And” between values parts separate entries of the source, which are not always exact repeats. Equal entries are not always repeated.
What was measured:
p62 = biological target: T1, p62 (Homo sapiens, UniProt Q13501); assay: In vitro pulldown assay with biotinylated p62 ligands; type: binding; settings: biotinylated ligand, HEK293T extracts
T1 construct: expressed in transfected cells; host or cells: HEK293T, transient; whole lysate used
Method: A set of synthetic 12-mer peptides corresponding to the N-terminal sequences of the V-BiP (V[19]-[…]-biotin) and V-RGS4 (V^2-[…]-biotin) was C-terminally biotin-conjugated. Alternatively, biotinylated versions of YOK-1304, YT-8-8, YTK-1105, YOK-2204, and PBA were synthesized. To cross-link the above peptides with resin beads, biotin-conjugated peptides, and small molecule were mixed with high-capacity streptavidin agarose resin (Thermo Fisher Scientific) at a ratio of 0.5 mg of peptide per 1 mL of settled resin and incubated on a rotator at 4 °C overnight. After washing five times with PBS, the peptide/small molecule-bead conjugates were diluted with PBS at a 1:1 ratio. To prepare protein extracts, cells were collected by centrifugation and lysed by freezing and thawing at least 10 times in hypotonic buffer [10 mM KCl, 1.5 mM MgCl2, and 10 mM HEPES (pH 7.9)] with a protease inhibitor mix (Sigma). After centrifugation at 15,000 rpm 4 °C for 15 min, proteins were quantified using a BCA protein assay kit (Thermo Fisher Scientific). Total protein (200 μg) diluted in 300 μL of binding buffer [0.05% Tween-20, 10% glycerol, 0.2 M KCl, and 20 mM HEPES (pH 7.9)] were mixed with 50 μL of peptide/small molecule-bead resin and incubated at 4 °C for 2 h on a rotator. The protein-bound beads were collected by centrifugation at 2400 × g for 3 min and washed five times with binding buffer. The beads were resuspended in 25 μL of SDS sample buffer, heated at 95 °C for 5 min, and subjected to SDS/PAGE and immunoblotting.

[1] = system: p62 and LC3 punctate structures; assay: ICC of p62 and LC3 puncta formation and co-localization in HeLa cells; type: cell-based; settings: 2.5 μM, 24 h
Method: (§1) Cells were cultured on coverslips coated with poly-L-lysine (Sigma) to observe cellular localization of proteins. Using 4% paraformaldehyde in PBS (pH 7.4), the cells were fixed for 15 min at room temperature and washed three times for 5 min with PBS. After fixing, the cells were permeabilized with 0.5% Triton X-100 in PBS solution for 15 min and washed three times with PBS for 5 min. The cells were blocked containing 2% BSA in PBS solution for 1 h at room temperature. Subsequently, the cells were incubated with primary antibody diluted in 2% BSA/PBS solution overnight at 4 °C, followed by washing the cells three times for 10 min with PBS and incubated with Alexa Fluor-conjugated secondary antibody diluted in 2% BSA/PBS for 30 min at room temperature. Using a DAPI-containing mounting medium (Vector Laboratories), the coverslips were mounted on glass slides. Confocal images were taken by laser scanning confocal microscope 510 Meta (Zeiss) and analyzed by Zeiss LSM Image Browser (ver. 4.2.0.121). […] Quantification results are shown as mean ± S.D. or S.E.M. of three independent experiments

[2] = system: p62-positive and WIPI2-positive punctate structures; assay: ICC of WIPI2-p62 co-localization in HeLa cells; type: cell-based
Method: as §1
Supplementary Fig. 2. Characterization of p62-ZZ ligands (a, c, e) 3-D modeling of p62 […]
μM, 6 h). (m) Quantification of l for co-localization (n=3, 50 cells). Scale bar, 10 µm. (n) […]

[3] = system: autophagic turnover of p62 and LC3; assay: Autophagic flux assay in HeLa cells with or without HCQ; type: cell-based; settings: 2.5 μM, 24 h, with or without HCQ 10 µM 24 h
Method: Fig. 1 Nt-Arg-mimicking p62-ZZ ligands activate p62-dependent selective macroautophagy. a A model illustrating the mode of action of autophagy-targeting ligands. b Chemical structures of autophagy-targeting ligands. c In vitro pulldown assay in HEK293T cells of the 12-mer V-BiP peptide or autophagy-targeting ligands. d In vitro p62 oligomerization assay in HEK293T cells incubated with the p62-ZZ ligands in (b). e ICC of HeLa cells treated with p62-ZZ ligands in (b) (2.5 μM, 24 h). Scale bar, 10 μm. f, g Quantification of (e) for puncta formation and co-localization, respectively (n = 3 biologically independent experiments each counting 50 cells). h A schematic/formulae for autophagy flux index. i Autophagic flux assay in HeLa cells treated with YOK-1304 or YTK-105 (2.5 μM, 24 h) in the presence or absence of HCQ (10 µM, 24 h). Data are presented as mean values ± SD where relevant. P-values (from a two-sided unpaired t test): ***P < 0.000956 (for p62 punctate formation), ***P < 0.000539 (for LC3 punctate formation), ***P < 0.000925 (for p62-LC3 co-localization). Source data are provided with this paper. TEXT PRINTED IN THE PICTURE: (i) YOK 1304: Normalized p62 A.F. index: 2.8; Normalized LC3 II/I A.F. index: 4.2 | (i) YTK 105: Normalized p62 A.F. index: 4.6; Normalized LC3 II/I A.F. index: 11.2
(§2) Adherent cells were washed with phosphate-buffered saline (PBS) and cell pellets were lysed in SDS-based sample buffer (277.8 mM Tris-HCI, pH 6.8, 4.4% LDS, 44.4% (v/v) glycerol) containing beta-mercaptoethanol. Alternatively, cell pellets or protein supernatants were lysed in 5X Laemmli sample buffer. Whole-cell lysates were separated using SDS-PAGE, and transferred onto polyvinyllidene difluoride membranes at 100 V for 2 h at 4 °C. The membrane was incubated with a blocking solution consisting 4% skim milk in PBS solution for 30 min at room temperature and incubated with primary antibodies overnight, followed by incubation with host-specific HRP-conjugated secondary antibodies (1:10000 dilution). For signal detection, the membrane was developed with a mixture of ECL solution (Thermo Fisher Scientific) using X-ray films. Densitometry of developed bands was measured and analyzed with ImageJ (NIH, Bethesda).

[4] = biological target: T2, methionine aminopeptidase 2 (MetAP2) (Homo sapiens, UniProt P50579); assay: Western blot degradation of MetAP2; type: cell-based; settings: 293T, 24 h
T2 construct: Targeted autophagic degradation of endogenous oncoproteins by AUTOTAC; endogenous in cells; host or cells: HEK293 / HEK293T, U87-MG
Method: as §2

[5] = system: U87-MG glioblastoma cells; assay: Wound healing assay in U87-MG cells; type: cell-based; set-up: wound area, single experiment / wound area, Average: unit not given here; settings: Fig. S4j
Method: To analyze cell migration in two dimensions, U-87 MG or ACHN cells were plated to a monolayer. Cells were scratched with a sterile 10 μl pipette tip and the debris was removed using medium. Cells were treated with compounds and incubated for different time to monitor cell behavior. Photographs were obtained using a microscope at different time point.

mutant desminL385P = biological target: T3, mutant desminL385P (Homo sapiens, UniProt P17661, L385P); assay: WB degradation of mutant desmin in HeLa cells; type: cell-based; settings: exogenously expressed
T3 construct: expressed in transfected cells; host or cells: HeLa, transient
Method: as §2
(§3) Supplementary Fig. 5. AUTOTACs selectively target pathological aggregation-prone proteins for autophagic degradation. (a) WB in HEK293T cells treated with PBA-1105 (1 μM) and MG132 (1 μM, 24 h) at the indicated time points. (b) ICC of HeLa cells treated with the indicated compounds (1 μM, 24 h). Scale bar, 10 μm. (c) WB in HEK293T cells treated with PBA-1105 (500 nM, 24 h) and MG132 (1 μM, 24 h) under siRNA-mediated knockdown of p62 or ATG7 (20 nM, 48 h). (d) ICC in HeLa cells transiently expressing WIPI2-GFP and treated with Anle138b-F105 (1 μM, 24 h). Scale bar, 10 μm. (e) ICC in HeLa cells treated with […]
(§4) nM, 24 h). (g, h) WB in HeLa cells transiently expressing wild type or mutant (L385P) desmin-flag with LacZ-myc and treated with PBA-1105, PBA-1105b or Anle138b-F105 at the […]

wild-type desmin = biological target: T4, wild-type desmin (Homo sapiens, UniProt P17661); assay: WB degradation of wild-type desmin in HeLa cells; type: cell-based; settings: exogenously expressed
T4 construct: expressed in transfected cells; host or cells: HeLa, transient
Method: as §2, §3, §4

tauP301L = tauP301L (Homo sapiens, UniProt P10636, P618L); assay: WB degradation of tauP301L in SH-SY5Y-tauP301L cells; type: cell-based; settings: SH-SY5Y-tauP301L cells
How it was run: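 Lysates in SDS/LDS or Laemmli sample buffer were separated by SDS-PAGE and blotted to PVDF. Target protein was detected with primary antibodies, HRP secondary and ECL on X-ray film, and degradation quantified by band densitometry.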

[6] = HeLa expressing WIPI2-GFP, 2.5 μM, 6 h
[7] = HeLa, endogenous WIPI2, 2.5 μM, 24 h

T2 sequence (P50579 whole entry): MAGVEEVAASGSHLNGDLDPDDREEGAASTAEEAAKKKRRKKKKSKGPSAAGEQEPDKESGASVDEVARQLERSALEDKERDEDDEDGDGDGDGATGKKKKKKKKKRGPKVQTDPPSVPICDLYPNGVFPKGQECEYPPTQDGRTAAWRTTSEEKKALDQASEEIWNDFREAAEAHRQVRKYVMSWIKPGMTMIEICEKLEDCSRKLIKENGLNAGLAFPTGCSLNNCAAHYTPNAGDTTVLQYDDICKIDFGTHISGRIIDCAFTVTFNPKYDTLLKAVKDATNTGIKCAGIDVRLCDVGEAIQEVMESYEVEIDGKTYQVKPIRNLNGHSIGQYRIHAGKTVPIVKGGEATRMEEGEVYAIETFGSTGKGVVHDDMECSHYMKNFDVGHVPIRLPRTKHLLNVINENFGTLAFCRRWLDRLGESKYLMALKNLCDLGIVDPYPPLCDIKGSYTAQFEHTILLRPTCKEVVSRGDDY
T4 sequence (P17661 whole entry): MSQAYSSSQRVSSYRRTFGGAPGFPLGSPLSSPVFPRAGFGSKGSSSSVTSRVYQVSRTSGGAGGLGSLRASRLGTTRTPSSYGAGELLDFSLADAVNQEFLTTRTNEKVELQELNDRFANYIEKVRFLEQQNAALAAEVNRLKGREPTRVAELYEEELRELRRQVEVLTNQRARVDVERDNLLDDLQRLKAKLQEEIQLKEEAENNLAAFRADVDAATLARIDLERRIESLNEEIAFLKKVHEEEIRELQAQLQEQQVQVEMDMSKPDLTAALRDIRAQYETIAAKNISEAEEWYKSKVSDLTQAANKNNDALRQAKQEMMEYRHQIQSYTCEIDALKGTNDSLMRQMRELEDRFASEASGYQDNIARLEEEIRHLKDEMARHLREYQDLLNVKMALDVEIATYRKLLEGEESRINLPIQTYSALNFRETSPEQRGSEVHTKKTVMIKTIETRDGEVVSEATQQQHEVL
Chain of tauP301L (P10636 1-441 isoform P10636-8 P301L): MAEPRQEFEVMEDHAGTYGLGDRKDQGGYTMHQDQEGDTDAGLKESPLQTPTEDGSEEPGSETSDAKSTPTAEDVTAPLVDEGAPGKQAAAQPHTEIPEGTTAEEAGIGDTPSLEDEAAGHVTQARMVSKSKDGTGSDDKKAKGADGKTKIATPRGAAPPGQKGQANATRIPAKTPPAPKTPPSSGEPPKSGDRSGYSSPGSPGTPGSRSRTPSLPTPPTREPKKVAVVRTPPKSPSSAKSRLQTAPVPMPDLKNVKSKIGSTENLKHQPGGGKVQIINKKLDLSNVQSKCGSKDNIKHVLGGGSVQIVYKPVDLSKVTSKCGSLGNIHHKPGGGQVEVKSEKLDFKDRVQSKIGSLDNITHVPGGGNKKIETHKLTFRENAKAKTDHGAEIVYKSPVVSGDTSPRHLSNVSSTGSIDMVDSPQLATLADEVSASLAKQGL
T3 sequence (P17661 whole entry L385P): as the sequence (P17661 whole entry) above, with L385P counted along it
T1 sequence (Q13501 whole entry): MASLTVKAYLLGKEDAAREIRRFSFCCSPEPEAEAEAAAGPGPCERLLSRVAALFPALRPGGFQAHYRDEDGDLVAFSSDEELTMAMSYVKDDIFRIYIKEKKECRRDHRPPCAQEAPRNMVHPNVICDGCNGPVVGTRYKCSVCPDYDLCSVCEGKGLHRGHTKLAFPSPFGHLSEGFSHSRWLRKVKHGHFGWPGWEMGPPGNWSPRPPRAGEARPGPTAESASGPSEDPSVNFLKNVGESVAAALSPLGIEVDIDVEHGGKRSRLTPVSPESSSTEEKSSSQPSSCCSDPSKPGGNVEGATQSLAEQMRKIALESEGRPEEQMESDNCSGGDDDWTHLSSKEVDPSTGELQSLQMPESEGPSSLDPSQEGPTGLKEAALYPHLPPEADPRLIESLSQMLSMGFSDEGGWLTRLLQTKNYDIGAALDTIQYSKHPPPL

OCCNCc1cccc(OCc2ccccc2)c1 [YTK-105]
binding of p62 in pulldown (p62): bound
LC3 puncta formation, AVG of cells of 50 [1]: 42.3333
LC3 puncta formation, percentage AVG [1]: 84.6667%
p62-LC3 colocalization, AVG of cells of 50 [1]: 45
p62-LC3 colocalization, percentage AVG [1]: 90%
p62 puncta formation, AVG of cells of 50 [1]: 43.6667
p62 puncta formation, percentage AVG [1]: 87.3333%
LC3 puncta formation, cells of 50 cells counted ([1]; single experiments): 38 and 42 and 47
p62-LC3 colocalization, cells of 50 cells counted ([1]; single experiments): 46 and 43
p62 puncta formation, cells of 50 cells counted ([1]; single experiments): 43 and 41 and 47
WIPI2-GFP-p62 colocalization, AVG of cells of 50 [2, 6]: 25
WIPI2-GFP-p62 colocalization, percentage AVG [2, 6]: 50%
WIPI2-GFP-p62 colocalization, cells of 50 cells counted ([2]; HeLa expressing WIPI2-GFP, 2.5 μM, 6 h, single experiments): 31 and 18 and 26
WIPI2-p62 colocalization, AVG of cells of 50 [2, 7]: 40.6667
WIPI2-p62 colocalization, percentage AVG [2, 7]: 81.3333%
WIPI2-p62 colocalization, cells of 50 cells counted ([2]; HeLa, endogenous WIPI2, 2.5 μM, 24 h, single experiments): 48 and 33 and 41
Normalized LC3 II/I A.F. index [3]: 11.2
Normalized p62 A.F. index [3]: 4.6
MetAP2 normalized to control, AVG % ([4]; 2.5uM): 101.594%
MetAP2 normalized to control, AVG % ([4]; 10uM): 142.103%
wound area, single experiment ([5]; 0h): 1132236 and 1199923 and 1182736
wound area, Average % ([5]; 0h (reference = 100)): 100%
wound area, Average ([5]; 0h, con 1278325): 1171632
wound area, single experiment ([5]; 4h): 859025 and 791115 and 860952
wound area, Average ([5]; 4h, con 815372): 837031
wound area, Average % ([5]; 4h, relative to 0h, con 63.7844): 71.4415%
wound area, single experiment ([5]; 12h): 450234 and 520420 and 504520
wound area, Average ([5]; 12h, con 627015): 491725
wound area, Average % ([5]; 12h, relative to 0h, con 49.0497): 41.9692%
wound area, single experiment ([5]; 24h): 288632 and 435340 and 335340
wound area, Average ([5]; 24h, con 144265): 353104
wound area, Average % ([5]; 24h, relative to 0h, con 11.2855): 30.1378%

O=C(CCCc1ccccc1)NCCOCCOCCOCCOCCOCCOCCOCCNCc1ccc(OCc2ccccc2)c(OCc2ccccc2)c1 [PBA-1105b]
degradation of mutant desminL385P (mutant desminL385P): induced the degradation
degradation of wild-type desmin (wild-type desmin): not wild-type desmin
degradation of tauP301L (tauP301L): at a similar efficiency as the original PBA-1105

From PMC8850458, “The AUTOTAC chemical biology platform for targeted protein degradation via the autophagy-lysosome system” (Nature Communications, 2022)
